# From PubChem BioAssay AID1963834 (Molecular Pharmacology Branch, DTP, NCI, 2024)
# Tested on: 873145-292-R-J1-PDC complex spheroid viability
# Assay: Anticancer human tumor 873145-292-R-J1-PDC patient-derived renal clear cell carcinoma cell line growth inhibition [POLQ]
# Conditions: for IC50: curve of first compound; for viability, T/C: stronger effect = lower value
# Description: Multicellular complex tumor spheroid response to Polymerase (POL) inhibitors (novobiocin, ART-558, RP6685) in combination with a variety of drugs and investigational agents in selected tumor cell lines
# The POL inhibitors (novobiocin, ART-558, and RP6685) were evaluated both individually and in combination with standard of care and investigational anticancer small molecules within a complex spheroid model of solid tumors. . Complex spheroids include a stromal component modeled by human endothelial cells (HUVEC) and fibroblasts modeled by human mesenchymal stem cells (MSCs). The concentration ranges selected for each drug and investigational agent were based upon clinically achievable concentrations if the clinical Cmax of the agent was known.
# Compounds. The drugs and investigational agents: novobiocin (NSC847541), ART-558 (NSC835418), RP-6685 (NSC848927), peposertib (NSC802822), ceralasertib (NSC780249), elimusertib (NSC800525), camonsertib (NSC841442), AZD-1390 (NSC803789), olaparib (NSC753686), talazoparib (NSC767125), rucaparib (NSC756644), sotorasib (NSC818433), MRTX-1133 (NSC836407), SN-38 (NSC673596), topotecan (NSC609699), epotoside (NSC141540), doxorubicin (NSC123127), gemcitabine (NSC613327), 5-fluorouracil (NSC19893), paclitaxel (NSC125973), vemurafenib (NSC761431), MSA-2 (NSC828583), SN-011 (NSC837082), adavosertib (NSC754352), prexasertib (NSC758257), carboplatin (NSC241240) and oxaliplatin (NSC266046), were obtained from the National Cancer Institute (NCI) Developmental Therapeutics Program Chemical Repository (21). The FDA-approved anticancer drug set is available from the Developmental Therapeutics Program at https://dtp.cancer.gov/organization/dscb/obtaining/. […] The stock solutions were prepared in dimethyl sulfoxide (DMSO, Sigma-Aldrich, St. Louis, MO, cat. D2650), except for the platinum compounds which were prepared in saline (Quality Biological, Gaithersburg, MD, cat. 114-055-101), at 800-fold the tested concentration and stored at -70 degrees C prior to their use. All drugs and investigational agents were tested over a range starting from a high concentration at or near the clinical Cmax and decreasing in half-log increments. If the clinical Cmax for an agent had not been determined, the highest concentration tested was 10 microM, except for SN-38, which was tested at a high concentration of 1 microM.
# Cell Culture. All cells were maintained in an incubator at 37 degrees C and 5% CO2 with 95% humidity. The PDC lines were cultured according to standard operating procedures established by the NCI PDMR (https://pdmr.cancer.gov). Table 3 of the manuscript, lists the cell lines along with the number of the three cell types plated to form the mct-spheroids and media for tumor cell growth. After thawing, all PDC lines, except 997537-175-T-J1-PDC and 415267-285-R-J2-PDC, were cultured in Matrigel-coated flasks prepared with a working solution of 1X Ham's F-12 nutrient mix, without supplementation (Thermo Fisher Scientific, cat. 11765054), 100 U/mL penicillin-streptomycin (Thermo Fisher Scientific, cat. 15140122), and 2.5% Matrigel (Corning Inc., Corning, NY, cat. 354248) for the first three passages. The two PDC lines 997537-175-T-J1-PDC and 415267-285-R-J2-PDC were cultured on uncoated flasks. The 857933-349-R-J2-PDC line was cultured in 6C/Colon 1B media containing advanced DMEM/F-12 (Thermo Fisher Scientific, cat. 12634028), 10 mM HEPES (Thermo Fisher Scientific, cat. 15630080), 1X GlutaMAX supplement (Thermo Fisher Scientific, cat. 35050061), 0.1 mg/mL primocin (InvivoGen, San Diego, CA, cat. ant-pm-2), 10% defined fetal bovine serum, heat inactivated (HyClone Laboratories Inc., Logan, UT, cat. SH30070.03HI), 50% L-WRN conditioned media (ATCC, cat. CRL-3276), 1.25 mM N-Acetyl-L-cysteine (Sigma-Aldrich, cat. A9165), 10 mM nicotinamide (Sigma-Aldrich, cat. N0636), 1X B-27 supplement (Thermo Fisher Scientific, cat. 17504044), 1X N-2 supplement (Thermo Fisher Scientific, cat. […]
# [1] = second compound 0.0316 µM, first compound 0.0316 µM
# [2] = second compound 0.0316 µM, first compound 0.1 µM
# [3] = second compound 0.1 µM, first compound 0.0316 µM
# [4] = second compound 0.1 µM, first compound 0.1 µM
# [5] = second compound 0.316 µM, first compound 0.0316 µM
# [6] = second compound 0.316 µM, first compound 0.1 µM
# [7] = second compound 1 µM, first compound 0.0316 µM
# [8] = second compound 1 µM, first compound 0.1 µM
# [9] = second compound 3.16 µM, first compound 0.0316 µM
# [10] = second compound 3.16 µM, first compound 0.1 µM
# [11] = second compound 10 µM, first compound 0.0316 µM
# [12] = second compound 10 µM, first compound 0.1 µM
# 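Further: spheroids exposed to compounds for 7 days before viability readout.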
# 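Wherever viability, T/C is given: luminescence signal used as surrogate for viable cell content; 100% = DMSO vehicle control viability.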
compound,measurement,setting,value
CC[C@@]1(O)C(=O)OCc2c1cc1n(c2=O)Cc2cc3c(CN(C)C)c(O)ccc3nc2-1 + Nc1ccc(C#CCN(C(=O)Cc2ncc(C(F)(F)F)cc2C(F)(F)F)c2ccc(F)cc2)nn1,IC50,second compound 0.0316 µM,> 0.1 µM
same,IC50,second compound 0.1 µM,> 0.1 µM
same,IC50,second compound 0.316 µM,> 0.1 µM
same,IC50,second compound 1 µM,> 0.1 µM
same,IC50,second compound 3.16 µM,> 0.1 µM
same,IC50,second compound 10 µM,> 0.1 µM
same,"viability, T/C","second compound 0.0316 µM, first compound 0.000316 µM",109%
same,"viability, T/C","second compound 0.0316 µM, first compound 0.001 µM",116%
same,"viability, T/C","second compound 0.0316 µM, first compound 0.00316 µM",96.9%
same,"viability, T/C","second compound 0.0316 µM, first compound 0.01 µM",92%
same,"viability, T/C",[1],95.8%
same,"viability, T/C",[2],56.4%
same,"viability, T/C","second compound 0.1 µM, first compound 0.000316 µM",112%
same,"viability, T/C","second compound 0.1 µM, first compound 0.001 µM",107%
same,"viability, T/C","second compound 0.1 µM, first compound 0.00316 µM",107%
same,"viability, T/C","second compound 0.1 µM, first compound 0.01 µM",107%
same,"viability, T/C",[3],99.3%
same,"viability, T/C",[4],52.7%
same,"viability, T/C","second compound 0.316 µM, first compound 0.000316 µM",104%
same,"viability, T/C","second compound 0.316 µM, first compound 0.001 µM",105%
same,"viability, T/C","second compound 0.316 µM, first compound 0.00316 µM",92%
same,"viability, T/C","second compound 0.316 µM, first compound 0.01 µM",111%
same,"viability, T/C",[5],95.5%
same,"viability, T/C",[6],53.4%
same,"viability, T/C","second compound 1 µM, first compound 0.000316 µM",115%
same,"viability, T/C","second compound 1 µM, first compound 0.001 µM",99.2%
same,"viability, T/C","second compound 1 µM, first compound 0.00316 µM",98.6%
same,"viability, T/C","second compound 1 µM, first compound 0.01 µM",91%
same,"viability, T/C",[7],106%
same,"viability, T/C",[8],59.6%
same,"viability, T/C","second compound 3.16 µM, first compound 0.000316 µM",114%
same,"viability, T/C","second compound 3.16 µM, first compound 0.001 µM",112%
same,"viability, T/C","second compound 3.16 µM, first compound 0.00316 µM",112%
same,"viability, T/C","second compound 3.16 µM, first compound 0.01 µM",102%
same,"viability, T/C",[9],93.5%
same,"viability, T/C",[10],63.9%
same,"viability, T/C","second compound 10 µM, first compound 0.000316 µM",109%
same,"viability, T/C","second compound 10 µM, first compound 0.001 µM",111%
same,"viability, T/C","second compound 10 µM, first compound 0.00316 µM",124%
same,"viability, T/C","second compound 10 µM, first compound 0.01 µM",119%
same,"viability, T/C",[11],103%
same,"viability, T/C",[12],63.2%
COc1cc(C2c3cc4c(cc3C(OC3OC5COC(C)OC5C(O)C3O)C3COC(=O)C23)OCO4)cc(OC)c1O (centres undefined) + Nc1ccc(C#CCN(C(=O)Cc2ncc(C(F)(F)F)cc2C(F)(F)F)c2ccc(F)cc2)nn1,IC50,second compound 0.0316 µM,> 10 µM
same,IC50,second compound 0.1 µM,> 10 µM
same,IC50,second compound 0.316 µM,> 10 µM
same,IC50,second compound 1 µM,> 10 µM
same,IC50,second compound 3.16 µM,> 10 µM
same,IC50,second compound 10 µM,> 10 µM
same,"viability, T/C",[1],107%
same,"viability, T/C",[2],104%
same,"viability, T/C","second compound 0.0316 µM, first compound 0.316 µM",105%
same,"viability, T/C","second compound 0.0316 µM, first compound 1 µM",95.3%
same,"viability, T/C","second compound 0.0316 µM, first compound 3.16 µM",82.3%
same,"viability, T/C","second compound 0.0316 µM, first compound 10 µM",68%
same,"viability, T/C",[3],107%
same,"viability, T/C",[4],118%
same,"viability, T/C","second compound 0.1 µM, first compound 0.316 µM",97.7%
same,"viability, T/C","second compound 0.1 µM, first compound 1 µM",88.6%
same,"viability, T/C","second compound 0.1 µM, first compound 3.16 µM",83.9%
same,"viability, T/C","second compound 0.1 µM, first compound 10 µM",58.7%
same,"viability, T/C",[5],103%
same,"viability, T/C",[6],106%
same,"viability, T/C","second compound 0.316 µM, first compound 0.316 µM",109%
same,"viability, T/C","second compound 0.316 µM, first compound 1 µM",98.8%
same,"viability, T/C","second compound 0.316 µM, first compound 3.16 µM",87.6%
same,"viability, T/C","second compound 0.316 µM, first compound 10 µM",62%
same,"viability, T/C",[7],99.5%
same,"viability, T/C",[8],105%
same,"viability, T/C","second compound 1 µM, first compound 0.316 µM",107%
same,"viability, T/C","second compound 1 µM, first compound 1 µM",95.3%
same,"viability, T/C","second compound 1 µM, first compound 3.16 µM",87.4%
same,"viability, T/C","second compound 1 µM, first compound 10 µM",72.8%
same,"viability, T/C",[9],112%
same,"viability, T/C",[10],109%
same,"viability, T/C","second compound 3.16 µM, first compound 0.316 µM",109%
same,"viability, T/C","second compound 3.16 µM, first compound 1 µM",93.3%
same,"viability, T/C","second compound 3.16 µM, first compound 3.16 µM",76.3%
same,"viability, T/C","second compound 3.16 µM, first compound 10 µM",58.8%
same,"viability, T/C",[11],103%
same,"viability, T/C",[12],107%
same,"viability, T/C","second compound 10 µM, first compound 0.316 µM",110%
same,"viability, T/C","second compound 10 µM, first compound 1 µM",97.1%
same,"viability, T/C","second compound 10 µM, first compound 3.16 µM",78.5%
same,"viability, T/C","second compound 10 µM, first compound 10 µM",67.3%
